# Several values for one entry are separate records, joined by “and”; a condition that tells them apart may be missing. Equal entries are not always repeated. Structures can show the parent of a compound that is named as a salt.
# Key:
# [1] = system: Macrophages exposed to SARS-CoV-2; experiment: Cytokine production in macrophages in the presence of SARS-CoV-2 (Luminex); type: cell-based; conditions: macrophages exposed to SARS-CoV-2, supernatant 24 h post-infection
# [2] = Lung/blood distribution ratio in rat; type: in vivo; conditions: lung and blood
# [3] = Unbound fraction in human plasma; type: in vitro ADME
# [4] = system: LPS induced acute lung injury (ALI) model; experiment: LPS induced acute lung injury model in mouse; type: in vivo; conditions: for CD45+ % Decrease vs vehicle / CD45+ Mean / IL-6 % Decrease vs vehicle / IL-6 Mean / IL-12p40 % Decrease vs vehicle / IL-12p40 Mean / IP-10 % Decrease vs vehicle / IP-10 Mean / MIG % Decrease vs vehicle / MIG Mean / Neutrophils % Decrease vs vehicle / Neutrophils Mean / RANTES % Decrease vs vehicle / RANTES Mean / T cells % Decrease vs vehicle / T cells Mean / TNF % Decrease vs vehicle / TNF Mean / Total Protein in BALF % Decrease vs vehicle / Total Protein in BALF Mean: BALF Day 3; for decrease in neutrophil recruitment in the alveoli / decrease in neutrophil recruitment in the interstitium / reduction in mononuclear cell infiltration in the perivascular/peribronchiolar space / reduction of septal thickening in the alveoli: lung H&E histopathology score; for decrease in neutrophil recruitment in the alveoli / decrease in neutrophil recruitment in the interstitium / reduction in mononuclear cell infiltration in the perivascular/peribronchiolar space: FIG. 21; for reduction of septal thickening in the alveoli: FIG. 22
# Protocol: Table 2 summarizes the groups tested in the LPS induced acute lung injury (ALI) model study in mice. [table] Briefly, C57Bl/6 7-8 week old mice were exposed to lipopolysaccharide (LPS) oral aspiration (5 mg/Kg). The animals were treated orally with either vehicle, M3 (50 mg/Kg, or MIN-102 at different doses 25 and 50 mg/Kg) bid from Day −1 to Day 2, 6-8 h apart and QD on Day 3 1 h before euthanasia. On Day 3 protein content, cytokine assessment and leukocyte count by FACS analysis were performed in the bronchoalveolar lavage fluid (BALF). The results are shown in FIGS. 11-20, and Tables 3 and 4. The lungs were collected, embedded and processed for H&E histology.
# [5] = maximal over doses 25 and 50 mg/kg, BALF
compound,measurement,setting,value
"CC(O)c1ccc(CCOc2ccc(CC3SC(=O)NC3=O)cc2)nc1 (racemic) [MIN-102, 5-[[4-[2-[5-(1-hydroxyethyl)pyridin-2-yl]ethoxy]phenyl]methyl]-1,3-thiazolidine-2,4-dione hydrochloride]",effect on IL2 secretion,[1],No effect
same,effect on IL7 secretion,[1],No effect
same,reduction of MIP1-α secretion,[1],90%
same,Kp,[2],0.83
same,Unbound % in Plasma (human),[3],3.5%
same,CD45+ % Decrease vs vehicle,[4]; 25 mg/kg PO BID,52.36%
same,CD45+ Mean,[4]; 25 mg/kg PO BID,462941 cells/ml BALF
same,IL-6 % Decrease vs vehicle,[4]; 25 mg/kg PO BID,76.17%
same,IL-6 Mean,[4]; 25 mg/kg PO BID,116.2 pg/mL
same,IL-12p40 % Decrease vs vehicle,[4]; 25 mg/kg PO BID,55.14%
same,IL-12p40 Mean,[4]; 25 mg/kg PO BID,15.48 pg/mL
same,IP-10 % Decrease vs vehicle,[4]; 25 mg/kg PO BID,47.55%
same,IP-10 Mean,[4]; 25 mg/kg PO BID,627.6 pg/mL
same,MIG % Decrease vs vehicle,[4]; 25 mg/kg PO BID,50.52%
same,MIG Mean,[4]; 25 mg/kg PO BID,1369 pg/mL
same,Neutrophils % Decrease vs vehicle,[4]; 25 mg/kg PO BID,56.41%
same,Neutrophils Mean,[4]; 25 mg/kg PO BID,280504 cells/ml BALF
same,RANTES % Decrease vs vehicle,[4]; 25 mg/kg PO BID,61.57%
same,RANTES Mean,[4]; 25 mg/kg PO BID,21.68 pg/mL
same,T cells % Decrease vs vehicle,[4]; 25 mg/kg PO BID,43.43%
same,T cells Mean,[4]; 25 mg/kg PO BID,20898 cells/ml BALF
same,TNF % Decrease vs vehicle,[4]; 25 mg/kg PO BID,59.19%
same,TNF Mean,[4]; 25 mg/kg PO BID,12.85 pg/mL
same,Total Protein in BALF % Decrease vs vehicle,[4]; 25 mg/kg PO BID,46.00%
same,Total Protein in BALF Mean,[4]; 25 mg/kg PO BID,245.3 µg/mL
same,CD45+ % Decrease vs vehicle,[4]; 50 mg/kg PO BID,49.83%
same,CD45+ Mean,[4]; 50 mg/kg PO BID,487506 cells/ml BALF
same,IL-6 % Decrease vs vehicle,[4]; 50 mg/kg PO BID,87.13%
same,IL-6 Mean,[4]; 50 mg/kg PO BID,62.78 pg/mL
same,IL-12p40 % Decrease vs vehicle,[4]; 50 mg/kg PO BID,71.41%
same,IL-12p40 Mean,[4]; 50 mg/kg PO BID,9.868 pg/mL
same,IP-10 % Decrease vs vehicle,[4]; 50 mg/kg PO BID,55.42%
same,IP-10 Mean,[4]; 50 mg/kg PO BID,731.5 pg/mL
same,MIG % Decrease vs vehicle,[4]; 50 mg/kg PO BID,73.18%
same,MIG Mean,[4]; 50 mg/kg PO BID,741.7 pg/mL
same,Neutrophils % Decrease vs vehicle,[4]; 50 mg/kg PO BID,57.85%
same,Neutrophils Mean,[4]; 50 mg/kg PO BID,271223 cells/ml BALF
same,RANTES % Decrease vs vehicle,[4]; 50 mg/kg PO BID,79.24%
same,RANTES Mean,[4]; 50 mg/kg PO BID,11.71 pg/mL
same,T cells % Decrease vs vehicle,[4]; 50 mg/kg PO BID,42.49%
same,T cells Mean,[4]; 50 mg/kg PO BID,21245 cells/ml BALF
same,TNF % Decrease vs vehicle,[4]; 50 mg/kg PO BID,68.26%
same,TNF Mean,[4]; 50 mg/kg PO BID,10 pg/mL
same,Total Protein in BALF % Decrease vs vehicle,[4]; 50 mg/kg PO BID,49.50%
same,Total Protein in BALF Mean,[4]; 50 mg/kg PO BID,229.4 µg/mL
same,decrease of total number of leukocytes (CD45 positive cells) vs vehicle group,"[4]; in all doses (25 and 50 mg/kg), BALF",50%
same,decrease in neutrophil recruitment in the alveoli,[4],53%
same,decrease in neutrophil recruitment in the interstitium,[4],48%
same,reduction in mononuclear cell infiltration in the perivascular/peribronchiolar space,[4],31%
same,reduction of septal thickening in the alveoli,[4],43%
same,"T cells, maximal reduction vs vehicle group",[4]; [5],around 47%
same,"neutrophils, maximal reduction vs vehicle group",[4]; [5],around 58%
"CC(=O)c1ccc(CCOc2ccc(CC3SC(=O)NC3=O)cc2)nc1 (stereo not shown) [Compound M3, 5-[[4-[2-[5-Acetylpyridin-2-yl]ethoxy]phenyl]methyl]-1,3-thiazolidine-2,4-dione]",CD45+ % Decrease vs vehicle,[4]; 50 mg/kg PO BID,67% and 67.35%
same,CD45+ Mean,[4]; 50 mg/kg PO BID,317269 cells/ml BALF
same,IL-6 % Decrease vs vehicle,[4]; 50 mg/kg PO BID,96.86%
same,IL-6 Mean,[4]; 50 mg/kg PO BID,15.29 pg/mL
same,IL-12p40 % Decrease vs vehicle,[4]; 50 mg/kg PO BID,86.71%
same,IL-12p40 Mean,[4]; 50 mg/kg PO BID,4.586 pg/mL
same,IP-10 % Decrease vs vehicle,[4]; 50 mg/kg PO BID,79.17%
same,IP-10 Mean,[4]; 50 mg/kg PO BID,1045 pg/mL
same,MIG % Decrease vs vehicle,[4]; 50 mg/kg PO BID,90.75%
same,MIG Mean,[4]; 50 mg/kg PO BID,256.2 pg/mL
same,Neutrophils % Decrease vs vehicle,[4]; 50 mg/kg PO BID,72% and 72.06%
same,Neutrophils Mean,[4]; 50 mg/kg PO BID,179793 cells/ml BALF
same,RANTES % Decrease vs vehicle,[4]; 50 mg/kg PO BID,93.19%
same,RANTES Mean,[4]; 50 mg/kg PO BID,3.838 pg/mL
same,T cells % Decrease vs vehicle,[4]; 50 mg/kg PO BID,74% and 74.14%
same,T cells Mean,[4]; 50 mg/kg PO BID,9554 cells/ml BALF
same,TNF % Decrease vs vehicle,[4]; 50 mg/kg PO BID,68.26%
same,TNF Mean,[4]; 50 mg/kg PO BID,10 pg/mL
same,Total Protein in BALF % Decrease vs vehicle,[4]; 50 mg/kg PO BID,63% and 63.24%
same,Total Protein in BALF Mean,[4]; 50 mg/kg PO BID,167 µg/mL
same,reduction of B cells,"[4]; 50 mg/kg, BALF",52%
same,decrease in neutrophil recruitment in the alveoli,[4],64%
same,decrease in neutrophil recruitment in the interstitium,[4],62%
same,reduction in mononuclear cell infiltration in the perivascular/peribronchiolar space,[4],40%
same,reduction of septal thickening in the alveoli,[4],79%
"CCc1ccc(CCOc2ccc(CC3SC(=O)NC3=O)cc2)nc1 (stereo not shown) [Pioglitazone, reference compound]",Kp,[2],0.3
same,Unbound % in Plasma (human),[3],0.2%
